Measured values published in US20190053492A1, “SUBSTITUTED PYRIDINE COMPOUNDS AS PESTICIDES” (Bayer CropScience Aktiengesellschaft, priority 2016, published 2019).

Columns and labels:
Phaedon cochleariae = Phaedon cochleariae spray test; type: in vivo; details: after 7 days, Chinese cabbage leaf discs
Description: Phaedon cochleariae—Spray Test
Solvent: 78.0 parts by weight of acetone • • 1.5 parts by weight of dimethylformamide
Emulsifier: alkylaryl polyglycol ether
To produce a suitable active ingredient formulation, 1 part by weight of active ingredient is dissolved with the specified parts by weight of solvent and made up with water containing an emulsifier concentration of 1000 ppm until the desired concentration is attained. To produce further test concentrations, the formulation is diluted with emulsifier-containing water.
Discs of Chinese cabbage leaves (Brassica pekinensis) are sprayed with an active ingredient formulation of the desired concentration and, after drying, populated with larvae of the mustard beetle (Phaedon cochleariae).
After 7 days, the efficacy in % is determined. 100% means that all the beetle larvae have been killed; 0% means that no beetle larvae have been killed.

[1] = log P by HPLC on reversed-phase column (C 18), EEC Directive 79/831 Annex V.A8; type: physicochemical; details: 55° C.; for LOGP_HCOOH: log P (HCOOH), acidic range pH 2.7, 0.1% aqueous formic acid and acetonitrile, reversed-phase column (C 18); for LOGP_NEUTRAL: log P, neutral range, HPLC on reversed-phase column (C 18)
Description: Temperature: 55° C. […] Called log P (HCOOH) in the table. […] Called log P (neutral) in the table.

Spodoptera frugiperda = Spodoptera frugiperda spray test; type: in vivo; details: after 7 days, maize leaf discs
Procedure, shortened: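 Maize leaf discs were sprayed with compound formulated in acetone/DMF and emulsifier-containing water, dried, then infested with Spodoptera frugiperda caterpillars. Percent kill was scored after 7 days, from 100% (all dead) to 0% (none dead).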

SMILES | efficacy (beetle larvae killed) (Phaedon cochleariae; application rate 500 g/ha) [%] | LOGP_HCOOH [1] | LOGP_NEUTRAL [1] | efficacy (caterpillars killed) (Spodoptera frugiperda; application rate 500 g/ha) [%] | efficacy (caterpillars killed) (Spodoptera frugiperda; application rate 100 g/ha) [%] | efficacy (beetle larvae killed) (Phaedon cochleariae; application rate 100 g/ha) [%]
O=C(NC1CC1)c1cc(-c2ccc(I)cc2)cc(NC(=O)C2CC2)n1 [Example I-035] | 100 | 3.48 | 3.39 | 100 | – | –
CCCCNC(=O)c1cc(-c2ccc(C(F)(F)F)cc2)cc(NC(=O)C2CC2)n1 [Example I-037] | 83 | 4.05 | 3.98 | 100 | 83 | –
CC(NC(=O)c1cc(-c2ccc(C(F)(F)F)cc2)cc(N(C(=O)C2CC2)C(=O)C2CC2)n1)c1ccc(C#N)cc1 (stereo not shown) [Example I-039] | 100 | 4.36 | 4.31 | 100 | 100 | 100
N#Cc1ccc(CNC(=O)c2cc(-c3ccc(C(F)(F)F)cc3)cc(NC(=O)C3CC3)n2)cn1 [Example I-042] | 100 | 3.36 | 3.26 | 100 | 83 | 100
N#Cc1ccc(CNC(=O)c2cc(-c3ccc(C(F)(F)F)cc3)cc(NC(=O)C3CCC3)n2)cc1 [Example I-045] | 83 | 4.14 | 3.99 | 100 | – | 100
N#Cc1ccc(CNC(=O)c2cc(-c3ccc(C(F)(F)F)cc3)cc(NC(=O)CC3CC3)n2)cc1 [Example I-055] | 100 | 3.92 | 3.82 | 100 | 100 | –
O=C(NCc1ccc(Cl)c(F)c1)c1cc(-c2ccc(C(F)(F)F)cc2)cc(NC(=O)C2CC2)n1 [Example I-056] | 100 | 4.57 | 4.44 | 100 | 100 | –
CC(NC(=O)c1cc(-c2ccc(C(F)(F)F)cc2)cc(NC(=O)C2CC2)n1)c1ccc(C(F)(F)F)cc1 (stereo not shown) [Example I-057] | 83 | 4.91 | 4.77 | 100 | – | –
C[C@H](NC(=O)c1cc(-c2ccc(C(F)(F)F)cc2)cc(NC(=O)C2CC2)n1)c1ccc(C(F)(F)F)cc1 [Example I-060] | 100 | 4.89 | 4.82 | 100 | 83 | –
C[C@H](NC(=O)c1cc(-c2ccc(OC(F)(F)F)cc2)cc(NC(=O)C2CC2)n1)c1ccc(C(F)(F)F)cc1 [Example I-061] | 100 | 5.01 | 4.89 | 100 | 100 | –
O=C(NCc1ccc(C(F)(F)F)c(F)c1)c1cc(-c2ccc(C(F)(F)F)cc2)cc(NC(=O)C2CC2)n1 [Example I-064] | 100 | 4.68 | 4.53 | 100 | 100 | –
O=C(NCc1ccc(Cl)cc1F)c1cc(-c2ccc(C(F)(F)F)cc2)cc(NC(=O)C2CC2)n1 [Example I-066] | 100 | 4.63 | 4.53 | 100 | – | –
O=C(NCc1ccc(Cl)cc1F)c1cc(-c2ccc(OC(F)(F)F)cc2)cc(NC(=O)C2CC2)n1 [Example I-067] | 100 | 4.78 | 4.60 | 100 | 100 | –
N#Cc1cc(F)c(CNC(=O)c2cc(-c3ccc(C(F)(F)F)cc3)cc(NC(=O)C3CC3)n2)c(F)c1 [Example I-068] | 100 | 4.00 | 3.87 | 100 | 100 | 100
